According to ChEMBL document CHEMBL5303573, “Mapping human microbiome drug metabolism by gut bacteria and their genes” (Nature, 2019):

Columns and labels:
[1] = target: T1, Diguanylate cyclase (Collinsella aerofaciens, UniProt A4EB91); assay: (§1) The drug is tested on Collinsella aerofaciens strain: ATCC25986 for biotransformation. The drug concentrations were measured before and after a 12-h incubation by liquid-chromatography-coupled mass spectrometry (LC–MS); format: ADME; parameters: dose 2 uM; conditions: 2 µM
T1 sequence (A4EB91 whole entry): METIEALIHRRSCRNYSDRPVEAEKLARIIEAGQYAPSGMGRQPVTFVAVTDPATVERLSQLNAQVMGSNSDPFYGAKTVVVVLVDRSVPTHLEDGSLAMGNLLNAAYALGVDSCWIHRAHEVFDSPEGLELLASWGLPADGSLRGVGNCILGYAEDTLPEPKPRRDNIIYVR

[2] = target: T2, Flavodoxin (Collinsella aerofaciens, UniProt A4ED08); assay: as §1; format: ADME; parameters: dose 2 uM; conditions: 2 µM
T2 sequence (A4ED08 whole entry): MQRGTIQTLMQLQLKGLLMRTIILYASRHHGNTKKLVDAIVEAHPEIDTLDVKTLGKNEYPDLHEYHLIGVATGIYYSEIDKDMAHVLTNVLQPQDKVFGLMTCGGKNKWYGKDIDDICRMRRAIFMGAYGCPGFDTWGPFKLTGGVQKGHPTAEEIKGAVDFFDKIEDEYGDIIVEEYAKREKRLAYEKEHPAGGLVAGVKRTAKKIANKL

[3] = target: T3, Pyridine nucleotide-disulfide oxidoreductase (Collinsella aerofaciens, UniProt A4EBM5); assay: as §1; format: ADME; parameters: dose 2 uM; conditions: 2 µM
T3 sequence (A4EBM5 whole entry): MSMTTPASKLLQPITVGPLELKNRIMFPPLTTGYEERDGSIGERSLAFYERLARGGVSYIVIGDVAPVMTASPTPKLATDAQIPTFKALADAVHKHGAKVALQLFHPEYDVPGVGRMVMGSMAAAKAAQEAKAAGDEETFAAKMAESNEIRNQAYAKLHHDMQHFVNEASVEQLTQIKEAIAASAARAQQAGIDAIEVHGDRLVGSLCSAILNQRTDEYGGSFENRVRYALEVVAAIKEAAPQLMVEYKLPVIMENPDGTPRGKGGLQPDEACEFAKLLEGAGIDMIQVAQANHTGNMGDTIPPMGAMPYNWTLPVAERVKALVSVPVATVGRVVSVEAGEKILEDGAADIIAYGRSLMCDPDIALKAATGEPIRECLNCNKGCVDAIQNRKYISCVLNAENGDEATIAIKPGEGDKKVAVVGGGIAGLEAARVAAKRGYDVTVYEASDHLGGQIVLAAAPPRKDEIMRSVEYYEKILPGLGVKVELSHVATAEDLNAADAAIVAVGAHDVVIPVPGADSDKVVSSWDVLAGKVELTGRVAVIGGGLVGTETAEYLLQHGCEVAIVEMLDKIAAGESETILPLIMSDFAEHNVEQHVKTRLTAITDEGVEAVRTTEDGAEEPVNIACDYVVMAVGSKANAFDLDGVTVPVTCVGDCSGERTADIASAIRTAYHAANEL

[4] = target: T4, GDSL-like protein (Collinsella aerofaciens, UniProt A4E7D0); assay: as §1; format: ADME; parameters: dose 2 uM; conditions: 2 µM
T4 sequence (A4E7D0 whole entry): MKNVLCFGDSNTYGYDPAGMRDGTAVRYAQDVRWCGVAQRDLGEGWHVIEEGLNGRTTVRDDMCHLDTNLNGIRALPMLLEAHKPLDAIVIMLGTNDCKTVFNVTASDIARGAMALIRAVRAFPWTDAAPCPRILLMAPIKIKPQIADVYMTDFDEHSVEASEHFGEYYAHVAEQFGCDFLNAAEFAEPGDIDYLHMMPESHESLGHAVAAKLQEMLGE

[5] = The drug is tested on Enterobacter cancerogenus strain: ATCC35316 for biotransformation. The drug concentrations were measured before and after a 12-h incubation by liquid-chromatography-coupled mass spectrometry (LC–MS); conditions: 2 µM
[6] = target: T5, Endoglucanase E (EGE) (Bacteroides thetaiotaomicron, UniProt Q8AAL9); assay: (§2) The drug is tested on Bacteroides thetaiotaomicron strain: VPI-5482 for biotransformation. The drug concentrations were measured before and after a 12-h incubation by liquid-chromatography-coupled mass spectrometry (LC–MS); format: ADME; parameters: dose 2 uM; conditions: 2 µM
T5 sequence (Q8AAL9 whole entry): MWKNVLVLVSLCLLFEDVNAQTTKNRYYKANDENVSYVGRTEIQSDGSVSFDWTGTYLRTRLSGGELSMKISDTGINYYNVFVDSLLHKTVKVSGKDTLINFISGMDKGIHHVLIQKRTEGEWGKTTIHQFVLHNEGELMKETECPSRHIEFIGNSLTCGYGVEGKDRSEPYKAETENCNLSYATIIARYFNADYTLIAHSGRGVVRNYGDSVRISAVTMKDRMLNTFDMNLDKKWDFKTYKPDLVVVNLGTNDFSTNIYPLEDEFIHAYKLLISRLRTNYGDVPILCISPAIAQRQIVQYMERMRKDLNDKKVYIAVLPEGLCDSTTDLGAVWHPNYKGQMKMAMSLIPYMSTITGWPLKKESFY

[7] = target: T6, Lipoprotein (Bacteroides thetaiotaomicron, UniProt Q8A343); assay: as §2; format: ADME; parameters: dose 2 uM; conditions: 2 µM
T6 sequence (Q8A343 whole entry): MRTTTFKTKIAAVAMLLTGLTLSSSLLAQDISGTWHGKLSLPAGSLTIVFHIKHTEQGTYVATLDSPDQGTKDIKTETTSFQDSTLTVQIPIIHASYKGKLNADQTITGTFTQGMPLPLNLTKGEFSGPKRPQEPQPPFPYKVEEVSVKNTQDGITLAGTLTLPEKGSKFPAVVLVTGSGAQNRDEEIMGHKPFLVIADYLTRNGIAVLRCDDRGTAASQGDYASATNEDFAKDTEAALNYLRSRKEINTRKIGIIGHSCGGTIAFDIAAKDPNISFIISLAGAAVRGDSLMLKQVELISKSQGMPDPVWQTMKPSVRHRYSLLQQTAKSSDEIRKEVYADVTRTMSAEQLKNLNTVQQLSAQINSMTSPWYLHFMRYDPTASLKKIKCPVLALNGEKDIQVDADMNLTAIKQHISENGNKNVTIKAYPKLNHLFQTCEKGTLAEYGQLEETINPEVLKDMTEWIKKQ

[8] = bacteroides fragilis, 12 h, 2 µM
Description: The drug is tested on Bacteroides fragilis strain: DS-208 for biotransformation. The drug concentrations were measured before and after a 12-h incubation by liquid-chromatography-coupled mass spectrometry (LC–MS)

[9] = parabacteroides johnsonii, 12 h, 2 µM
Description: The drug is tested on Parabacteroides johnsonii strain: DSM18315 for biotransformation. The drug concentrations were measured before and after a 12-h incubation by liquid-chromatography-coupled mass spectrometry (LC–MS)

[10] = The drug is tested on Clostridium ramosum strain: DSM1402 for biotransformation. The drug concentrations were measured before and after a 12-h incubation by liquid-chromatography-coupled mass spectrometry (LC–MS); conditions: thomasclavelia ramosa, 2 µM
[11] = The drug is tested on Eubacterium rectale strain: ATCC33656 for biotransformation. The drug concentrations were measured before and after a 12-h incubation by liquid-chromatography-coupled mass spectrometry (LC–MS); conditions: agathobacter rectalis, 2 µM
[12] = The drug is tested on Bacteroides xylanisolvens strain: DSM18836 for biotransformation. The drug concentrations were measured before and after a 12-h incubation by liquid-chromatography-coupled mass spectrometry (LC–MS); conditions: 2 µM
[13] = The drug is tested on Bifidobacterium ruminantium strain: fecal isolate for biotransformation. The drug concentrations were measured before and after a 12-h incubation by liquid-chromatography-coupled mass spectrometry (LC–MS); conditions: 2 µM

SMILES | Bacterial Biotransformation [1] | Bacterial Biotransformation [2] | Bacterial Biotransformation [3] | Bacterial Biotransformation [4] | Bacterial Biotransformation [5] | Bacterial Biotransformation [6] | Bacterial Biotransformation [7] | Bacterial Biotransformation [8] | Bacterial Biotransformation [9] | Bacterial Biotransformation [10] | Bacterial Biotransformation [11] | Bacterial Biotransformation [12] | Bacterial Biotransformation [13]
CC(=O)Oc1ccc(C(c2ccc(OC(C)=O)cc2)c2ccccn2)cc1 [BISACODYL] | Compound NOT metabolized | Compound NOT metabolized | Compound NOT metabolized | Compound metabolized | Compound metabolized | Compound metabolized | Compound NOT metabolized | Compound metabolized | Compound metabolized | Compound metabolized | Compound metabolized | Compound metabolized | Compound metabolized
C#C[C@]1(O)CC[C@H]2[C@@H]3CCC4=Cc5oncc5C[C@]4(C)[C@H]3CC[C@@]21C [DANAZOL] | Compound NOT metabolized | Compound NOT metabolized | Compound NOT metabolized | Compound NOT metabolized | Compound metabolized | Compound NOT metabolized | Compound NOT metabolized | Compound metabolized | Compound metabolized | Compound metabolized | Compound metabolized | Compound metabolized | Compound metabolized
CC(=O)OCC(=O)[C@@]12N=C(C)O[C@@H]1C[C@H]1[C@@H]3CCC4=CC(=O)C=C[C@]4(C)[C@H]3[C@@H](O)C[C@@]12C [DEFLAZACORT] | Compound NOT metabolized | Compound NOT metabolized | Compound NOT metabolized | Compound NOT metabolized | Compound metabolized | Compound NOT metabolized | Compound NOT metabolized | Compound metabolized | Compound metabolized | Compound metabolized | Compound metabolized | Compound metabolized | Compound metabolized
CC(=O)Nc1ccc(OC(C)=O)cc1 [DIACETAMATE] | Compound NOT metabolized | Compound NOT metabolized | Compound NOT metabolized | Compound metabolized |  | Compound metabolized | Compound NOT metabolized | Compound metabolized | Compound metabolized | Compound metabolized | Compound metabolized | Compound metabolized | Compound metabolized
CCOC(=O)C1=C(C)NC(C)=C(C(=O)OC)C1c1cccc([N+](=O)[O-])c1 (stereo not drawn) [NITRENDIPINE] | Compound metabolized | Compound NOT metabolized | Compound NOT metabolized | Compound NOT metabolized | Compound NOT metabolized |  |  | Compound metabolized | Compound metabolized | Compound metabolized | Compound metabolized | Compound metabolized | Compound metabolized

The remaining lines, values ahead:

Bacterial Biotransformation [1] | Bacterial Biotransformation [2] | Bacterial Biotransformation [3] | Bacterial Biotransformation [4] | Bacterial Biotransformation [5] | Bacterial Biotransformation [6] | Bacterial Biotransformation [7] | Bacterial Biotransformation [8] | Bacterial Biotransformation [9] | Bacterial Biotransformation [10] | Bacterial Biotransformation [11] | Bacterial Biotransformation [12] | Bacterial Biotransformation [13] | SMILES
Compound NOT metabolized | Compound metabolized | Compound NOT metabolized | Compound NOT metabolized |  | Compound NOT metabolized | Compound NOT metabolized | Compound metabolized | Compound metabolized | Compound metabolized | Compound metabolized | Compound metabolized | Compound metabolized | Nc1ccc(/N=N/c2ccccc2)c(N)n1 [PHENAZOPYRIDINE]
Compound NOT metabolized | Compound NOT metabolized | Compound NOT metabolized | Compound NOT metabolized |  | Compound NOT metabolized | Compound metabolized | Compound metabolized | Compound metabolized | Compound NOT metabolized | Compound NOT metabolized | Compound metabolized |  | CC(=O)SCC(Cc1ccccc1)C(=O)NCC(=O)OCc1ccccc1 (stereo not drawn) [RACECADOTRIL]
Compound NOT metabolized | Compound NOT metabolized | Compound NOT metabolized |  |  | Compound NOT metabolized | Compound NOT metabolized | Compound metabolized | Compound metabolized | Compound metabolized | Compound metabolized | Compound metabolized | Compound metabolized | O=C(O)c1cc(/N=N/c2ccc(S(=O)(=O)Nc3ccccn3)cc2)ccc1O [SULFASALAZINE]
 | Compound NOT metabolized | Compound metabolized | Compound NOT metabolized | Compound NOT metabolized | Compound NOT metabolized | Compound NOT metabolized | Compound metabolized | Compound metabolized | Compound metabolized | Compound metabolized | Compound metabolized | Compound metabolized | CCS(=O)(=O)CCn1c([N+](=O)[O-])cnc1C [TINIDAZOLE]
